# Data: patent publication US6713628B2, “Process for preparing pharmacologically acceptable salt of N-(1(S)-ethoxycarbonyl-3-phenylpropyl)-L-alanyl-amino acid” (Kaneka Corporation, priority 1997, dated 2004)
# What was measured:
# Format in all cases: physicochemical
# [1] = Formation of diketopiperazine derivative (3) from enalapril in ethyl acetate of given water content or in water, 30° C., 6 hours, HPLC (Example 8); settings: about 13% by weight solution
# Experimental: (§1) The HPLC analysis was carried out under the following conditions:
# According to Example 1, an ethyl acetate solution of N-(1(S)-ethoxycarbonyl-3-phenylpropyl)-L-alanyl-L-proline was prepared. 129.40 Grams of this organic phase was washed twice with 30 ml of saturated brine, and dehydrated with magnesium sulfate. The solvent was concentrated and, then, the concentrated liquid was dried under reduced pressure to obtain an oily reaction product. This product was dissolved in ethyl acetate having a water content shown in Table 3 or water to prepare a solution having a concentration of about 13% by weight, and the solution was warmed to 30° C. and stirred for 6 hours. The amount produced of the diketopiperazine derivative (3) was analyzed with HPLC, and the relation between water content and the average increase in the diketopiperazine derivative (3) per hour was investigated. The molar ratio in Table 3 means mol number of water per 1 mol of N-(1(S)-ethoxycarbonyl-3-phenylpropyl)-L-alanyl-L-proline.
# [2] = Partition of enalapril between ethyl acetate and water against temperature, HPLC (Example 11); settings: ethyl acetate solution + H2O 10% by volume
# Experimental: as §1
# According to Example 1, an ethyl acetate solution of N-(1(S)-ethoxycarbonyl-3-phenylpropyl)-L-alanyl-L-proline was prepared. To 50 ml of the ethyl acetate solution was added H2O in an amount of 10% by volume (based on ethyl acetate). The mixture was stirred for 10 minutes at each temperature shown in Table 6, and allowed to stand still for 10 minutes and, then, separated. The amount of N-(1(S)-ethoxycarbonyl-3-phenylpropyl)-L-alanyl-L-proline in the water-saturated organic phase was analyzed with HPLC, and the relation between the temperature and the partition ratio to the organic phase was investigated.
# [3] = Formation of diketopiperazine derivative (3) from enalapril maleate in ethyl acetate containing 0.1% water or in H2O, 60° C., 6 hours, HPLC (Example 9); settings: 16% by weight
# Experimental: as §1
# According to Example 1, N-(1(S)-ethoxycarbonyl-3-phenylpropyl)-L-alanyl-L-proline maleate was prepared. Thereto was added ethyl acetate containing 0.1% water or H2O to prepare a solution having a concentration of 16% by weight, and the solution was warmed to 60° C. and stirred for 6 hours. The amount produced of the diketopiperazine derivative (3) was analyzed with HPLC, and the relation between water content and the average increase in the diketopiperazine derivative (3) per hour was investigated.
# [4] = Formation of diketopiperazine derivative (3) from the Example 10 oil in ethyl acetate of given water content, 10° C., 6 hours, HPLC (Example 10); settings: about 12% by weight solution
# Experimental: as §1
# To 5.00 g (28.2 mmol) of 1,2,3,4-tetrahydroisoquinoline-3-carboxylic acid were added 20 ml of ethyl acetate and 10 ml of H2O and, then, the pH was adjusted to 10.5 with 30% by weight NaOH aqueous solution. The inner temperature was regulated to 20° C. and, then, 4.31 g (14.1 mmol) of a crystal of N-(1(S)-ethoxycarbonyl-3-phenylpropyl)-L-alanine.N-carboxyanhydride was slowly added over 5 hours with stirring. During the addition, the reaction mixture was maintained at a pH of 10.5±1.0 with adding dropwise 30% by weight NaOH aqueous solution, and simultaneously, the inner temperature was maintained at 20° C. and the agitating power was maintained at 1.3 kW/m^3. After completion of the addition, the stirring was continued for 2 hour under the same conditions. The mixture was cooled to 5° C., and the pH thereof was adjusted to 4.5±0.2 with 35% by weight HCl. Then, under the same conditions, the stirring was continued for 10 minutes to complete the decarboxylation. The deposited material was removed by filtration under reduced pressure, and the organic phase was separated at 5° C. and the water phase was further extracted once with 20 ml of ethyl acetate at 10° C. The resulting organic phases were mixed and then washed three times with H2O in an amount of 5% by volume of the organic phase at 5° C. The organic phase was concentrated under reduced pressure to obtain 6.43 g of an oil. The oil was dissolved in ethyl acetate having a water content shown in Table 5 to prepare a solution having a concentration of about 12% by weight, and the resulting solution was stirred for 6 hours at 10° C. The amount produced of the diketopiperazine derivative (3) was analyzed with HPLC, and the relation between water content and the average increase in the diketopiperazine derivative (3) per hour was investigated.
smiles,measurement,setting,value
CCOC(=O)[C@H](CCc1ccccc1)N[C@@H](C)C(=O)N1CCC[C@H]1C(=O)O [N-(1(S)-ethoxycarbonyl-3-phenylpropyl)-L-alanyl-L-proline],Average increase per hour of diketopiperazine derivative (3),"[1]; ethyl acetate, water content 0.1% by weight (molar ratio 0.1)",2.85 % by weight/hr
same,Average increase per hour of diketopiperazine derivative (3),"[1]; ethyl acetate, water content 0.4% by weight (molar ratio 0.6)",2.06 % by weight/hr
same,Average increase per hour of diketopiperazine derivative (3),"[1]; ethyl acetate, water content 1.1% by weight (molar ratio 1.6)",1.32 % by weight/hr
same,Average increase per hour of diketopiperazine derivative (3),"[1]; ethyl acetate, water content 2.1% by weight (molar ratio 3.1)",0.99 % by weight/hr
same,Average increase per hour of diketopiperazine derivative (3),"[1]; ethyl acetate, water content 3.8% by weight (molar ratio 6.1)",0.48 % by weight/hr
same,Average increase per hour of diketopiperazine derivative (3),"[1]; ethyl acetate, water content 5.1% by weight (molar ratio 8.2)",0.39 % by weight/hr
same,Average increase per hour of diketopiperazine derivative (3),"[1]; water, water content 100% by weight (molar ratio 160)",0.02 % by weight/hr
same,Partition ratio to organic phase,[2]; 5° C.,26%
same,Partition ratio to organic phase,[2]; 10° C.,35%
same,Partition ratio to organic phase,[2]; 20° C.,57%
same,Partition ratio to organic phase,[2]; 25° C.,72%
same,Partition ratio to organic phase,[2]; 30° C.,88%
same,Partition ratio to organic phase,[2]; 40° C.,94%
CCOC(=O)[C@H](CCc1ccccc1)N[C@@H](C)C(=O)N1CCC[C@H]1C(=O)O.O=C(O)/C=C\C(=O)O [N-(1(S)-ethoxycarbonyl-3-phenylpropyl)-L-alanyl-L-proline maleate],Average increase per hour of diketopiperazine derivative (3),[3]; H2O,0.06 % by weight/hr
same,Average increase per hour of diketopiperazine derivative (3),[3]; ethyl acetate containing 0.1% water,0.55 % by weight/hr
CCOC(=O)[C@H](CCc1ccccc1)N[C@@H](C)C(=O)N1Cc2ccccc2C[C@H]1C(=O)O [Example 10],Average increase per hour of diketopiperazine derivative (3),[4]; water content 0.1% by weight,5.3 % by weight/hr
same,Average increase per hour of diketopiperazine derivative (3),[4]; water content 1.0% by weight,2.2 % by weight/hr
same,Average increase per hour of diketopiperazine derivative (3),[4]; water content 2.1% by weight,1.7 % by weight/hr
same,Average increase per hour of diketopiperazine derivative (3),[4]; water content 3.8% by weight,1.3 % by weight/hr
